pIC50: −log10 of the molar value. Some results are limits rather than exact numbers.

The assay deals with T1, wt human LRRK2 (Homo sapiens, UniProt Q5S007).
T1 construct: wt human LRRK2, catalytic site, catalytic site (ThermoFisher/USA); purchased ThermoFisher
T1 sequence (Q5S007 970-2527 limits assumed): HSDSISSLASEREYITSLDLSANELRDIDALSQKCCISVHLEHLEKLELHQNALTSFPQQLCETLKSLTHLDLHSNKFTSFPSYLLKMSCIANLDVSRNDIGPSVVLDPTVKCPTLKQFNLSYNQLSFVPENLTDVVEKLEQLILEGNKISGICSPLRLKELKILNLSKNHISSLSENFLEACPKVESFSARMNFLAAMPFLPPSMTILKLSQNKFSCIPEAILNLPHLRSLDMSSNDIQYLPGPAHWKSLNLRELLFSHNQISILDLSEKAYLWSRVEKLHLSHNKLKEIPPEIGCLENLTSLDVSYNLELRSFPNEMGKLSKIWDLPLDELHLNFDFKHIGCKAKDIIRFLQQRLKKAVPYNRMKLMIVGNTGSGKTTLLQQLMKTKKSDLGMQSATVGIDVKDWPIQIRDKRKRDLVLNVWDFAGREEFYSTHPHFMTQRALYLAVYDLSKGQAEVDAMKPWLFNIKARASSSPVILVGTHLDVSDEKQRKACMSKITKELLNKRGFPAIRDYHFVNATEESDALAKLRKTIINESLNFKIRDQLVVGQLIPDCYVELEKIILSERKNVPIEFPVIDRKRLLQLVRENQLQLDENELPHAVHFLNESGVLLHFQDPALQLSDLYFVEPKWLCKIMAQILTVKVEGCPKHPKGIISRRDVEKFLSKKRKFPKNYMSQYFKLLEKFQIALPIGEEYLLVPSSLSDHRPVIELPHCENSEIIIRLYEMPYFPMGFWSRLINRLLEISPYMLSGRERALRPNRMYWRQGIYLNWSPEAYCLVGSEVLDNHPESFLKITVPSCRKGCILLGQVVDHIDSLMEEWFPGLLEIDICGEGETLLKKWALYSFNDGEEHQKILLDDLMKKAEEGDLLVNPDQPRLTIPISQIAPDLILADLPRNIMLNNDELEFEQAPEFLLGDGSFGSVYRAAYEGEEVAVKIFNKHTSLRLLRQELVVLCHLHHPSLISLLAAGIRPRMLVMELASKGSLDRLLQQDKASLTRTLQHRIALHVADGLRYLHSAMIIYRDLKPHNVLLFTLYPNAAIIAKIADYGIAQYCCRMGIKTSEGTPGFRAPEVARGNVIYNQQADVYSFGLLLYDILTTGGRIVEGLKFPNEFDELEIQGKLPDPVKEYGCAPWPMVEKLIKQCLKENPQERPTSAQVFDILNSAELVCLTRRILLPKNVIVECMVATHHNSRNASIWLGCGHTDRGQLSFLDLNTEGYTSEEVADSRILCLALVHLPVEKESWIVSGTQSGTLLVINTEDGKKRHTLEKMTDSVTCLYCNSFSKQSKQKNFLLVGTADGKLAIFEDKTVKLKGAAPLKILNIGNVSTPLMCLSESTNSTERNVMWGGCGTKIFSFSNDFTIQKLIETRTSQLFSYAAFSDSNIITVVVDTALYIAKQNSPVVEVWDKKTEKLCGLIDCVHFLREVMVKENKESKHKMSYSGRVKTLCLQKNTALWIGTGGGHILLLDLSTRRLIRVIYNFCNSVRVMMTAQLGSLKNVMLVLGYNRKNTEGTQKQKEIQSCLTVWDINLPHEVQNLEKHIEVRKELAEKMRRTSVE
The assay can be described thus: TR-FRET LanthaScreen Tb Kinase Activity Assay, inhibition of LRRK2 kinase. The class given is biochemical. The settings on record: 2 nM wt human LRRK2, 400 nM fluorescein-ERM (LRRKtide) peptide, 38 µM ATP, 15 min pre-incubation, 120 min at room temperature. The protocol: In Table 2, activity is provided as the following: “+++”=IC50 less than 50 nM; “++”=IC50 between 50 nM and 200 nM; “+”=IC50> or =200 nM.
The compounds listed in Table 2 were tested for their inhibitory effect on LRRK2 kinase according to the following procedures.
The protocol for basic TR-FRET LanthaScreen Tb Kinase Activity Assay inhibitor studies were as follows. LanthaScreen Kinase Activity Assays (ThermoFisher/USA) to evaluate inhibitors were performed by addition of 100 nl of test compound in corresponding DMSO dilutions/5 μl of kinase/fluorescein-ERM(LRRKtide) peptide mixture, Compound & kinase were pre-incubated for 15 minutes, then 5 μl of ATP into 384 well small volume plates. After incubation for 120 minutes at room temperature, the detection reagents containing Tb-anti-pLRRKtide antibody were added to monitor phosphorylation level of peptide. Then, after 60 min minutes incubation at room temperature plates were read in Envision. Data analysis of emission ratios was according to LanthaScreen Tb Kinase Activity Assay protocol.
Kinase and assay components were adjusted to final concentrations according to the kit protocol. For LRRK2: 2 nM wt human LRRK2, catalytic site, catalytic site (ThermoFisher/USA), 400 nM peptide, 38 µM ATP in 1× Kinase Buffer A.
Basic protocol for TR-FRET LanthaScreen Tb Kinase Activity Assay inhibitor studies involved two steps:
Enzymatic step: Addition of […] of test compound in corresponding DMSO dilutions, 5 μL of kinase/substrate mixture, 5 μL of ATP into 384 well small volume plates. Incubation for 120 minutes at room temperature.
Detection step: Addition of 10 μL EDTA & antibody, read plate after 60 minutes. Data analysis of emission ratios according to KinEASE assay protocol.
Kinase and assay components were adjusted to final concentrations according to the kit protocol.
A general note: TR-FRET usually uses a lanthanide donor and a delayed reading to cut background.
On to `Fc1cccc(F)c1C1=Nc2c(Cl)cnn2-c2cc(N3CCOCC3)ncc2N1` [4-(3-Chloro-5-(2,6-difluorophenyl)-6H-pyrazolo[1,5-a]pyrido[3,4-f][1,3,5]triazepin-9-yl)morpholine], for which the pIC50 is > 7.30.

With `Fc1cccc(F)c1C1=Nc2c(Br)cnn2-c2cc(N3CCOCC3)ncc2N1` [4-(3-bromo-5-(2,6-difluorophenyl)-6H-pyrazolo[1,5-a]pyrido[3,4-f][1,3,5]triazepin-9-yl)morpholine], the pIC50 was > 7.30.

As for `Fc1cc(F)c(C2=Nc3c(Cl)cnn3-c3cc(N4CCOCC4)ncc3N2)c(F)c1` [4-(3-chloro-5-(2,4,6-trifluorophenyl)-6H-pyrazolo[1,5-a]pyrido[3,4-f][1,3,5]triazepin-9-yl)morpholine], the pIC50 was > 7.30.

Regarding `Fc1cccc(Cl)c1C1=Nc2c(Cl)cnn2-c2cc(N3CCOCC3)ncc2N1` [4-(3-chloro-5-(2-chloro-6-fluorophenyl)-6H-pyrazolo[1,5-a]pyrido[3,4-f][1,3,5]triazepin-9-yl)morpholine], the pIC50 was > 7.30.

`Fc1cccc(F)c1C1=Nc2c(F)cnn2-c2cc(N3CCOCC3)ncc2N1` [4-(5-(2,6-difluorophenyl)-3-fluoro-6H-pyrazolo[1,5-a]pyrido[3,4-f][1,3,5]triazepin-9-yl)morpholine]: the pIC50 is > 7.30.

On to `Cc1cnn2c1N=C(c1c(F)cccc1F)Nc1cnc(N3CCOCC3)cc1-2` [4-(5-(2,6-difluorophenyl)-3-methyl-6H-pyrazolo[1,5-a]pyrido[3,4-f][1,3,5]triazepin-9-yl)morpholine], for which the pIC50 is > 7.30.

Regarding `Fc1cccc(F)c1C1=Nc2ccnn2-c2cc(N3CCOCC3)ncc2N1` [4-(5-(2,6-difluorophenyl)-6H-pyrazolo[1,5-a]pyrido[3,4-f][1,3,5]triazepin-9-yl)morpholine], the pIC50 is > 7.30.

For `Fc1cccc(F)c1C1=Nc2c(Cl)cnn2-c2cc(N3CCCOCC3)ccc2N1` [4-[3-chloro-5-(2,6-difluorophenyl)-6H-pyrazolo[1,5-a][1,3,5]benzotriazepin-9-yl]-1,4-oxazepane], the pIC50 was > 7.30.

Consider `CC1CN(c2ccc3c(c2)-n2ncc(Cl)c2N=C(c2c(F)cccc2F)N3)CC(C)O1` (stereo not drawn) [4-[3-chloro-5-(2,6-difluorophenyl)-6H-pyrazolo[1,5-a][1,3,5]benzotriazepin-9-yl]-2,6-dimethyl-morpholine], for which the pIC50 was > 7.30.

Turning to `Fc1cccc(F)c1C1=Nc2c(Cl)cnn2-c2cc(N3CCOCC3)ccc2N1` [4-[3-chloro-5-(2,6-difluorophenyl)-6H-pyrazolo[1,5-a][1,3,5]benzotriazepin-9-yl]morpholine], the pIC50 was > 7.30.

Take `Fc1cccc(Cl)c1C1=Nc2c(Cl)cnn2-c2cc(N3CCOCC3)ccc2N1` [4-[3-chloro-5-(2-chloro-6-fluoro-phenyl)-6H-pyrazolo[1,5-a][1,3,5]benzotriazepin-9-yl]morpholine]: the pIC50 is > 7.30.

In the case of `Fc1cccc(N2CCOCC2)c1C1=Nc2c(Cl)cnn2-c2cc(N3CCOCC3)ccc2N1` [4-[3-chloro-5-(2-fluoro-6-morpholino-phenyl)-6H-pyrazolo[1,5-a][1,3,5]benzotriazepin-9-yl]morpholine], the pIC50 is < 6.70.

In the case of `Fc1cccc(F)c1C1=Nc2ccnn2-c2cc(N3CCOCC3)ccc2N1` [4-[5-(2,6-difluorophenyl)-6H-pyrazolo[1,5-a][1,3,5]benzotriazepin-9-yl]morpholine], the pIC50 was > 7.30.

For the molecule `N#Cc1cnn2c1N=C(c1c(F)cccc1F)Nc1cnc(N3CCOCC3)cc1-2` [5-(2,6-difluorophenyl)-9-morpholino-6H-pyrazolo[1,5-a]pyrido[3,4-f][1,3,5]triazepine-3-carbonitrile], the pIC50 is > 7.30.

In the case of `O=C(NCCF)c1cnc2c(c1)-n1ncc(Cl)c1N=C(c1c(F)cccc1F)N2` [5-chloro-8-(2,6-difluorophenyl)-N-(2-fluoroethyl)-2,3,7,9,11-pentazatricyclo[8.4.0.02,6]tetradeca-1(10),3,5,7,11,13-hexaene-13-carboxamide], the pIC50 is > 7.30.

One may read the pIC50 as the IC50 on a negative log10 scale, so that one unit is a factor of ten. Lower therefore signals a large IC50.

These data come from US20260347361A1, “LRRK2 INHIBITORS AND USES THEREOF” (NEURON23, INC, priority 2022, published 2026).
